Laboratory results published in patent publication US20240174636A1, “NOVEL INDOLEAMINE 2,3-DIOXYGENASE INHIBITORS, PROCESSES FOR THE PREPARATION THEREOF AND PHARMACEUTICAL COMPOSITIONS COMPRISING THE SAME” (YUHAN CORPORATION, priority 2021, published 2024).

biological target: IDO1 (Homo sapiens, UniProt P14902); assay: IDO1 cellular activity using HEK293 cells transfected with IDO1 expression vector; format: cell-based; design: host or cells: HEK293 cells, transient transfection with Lipofectamine 2000; settings: 24 h compound incubation, read-out: Inhibitory Activity (IC50)
Sequence (P14902 whole entry): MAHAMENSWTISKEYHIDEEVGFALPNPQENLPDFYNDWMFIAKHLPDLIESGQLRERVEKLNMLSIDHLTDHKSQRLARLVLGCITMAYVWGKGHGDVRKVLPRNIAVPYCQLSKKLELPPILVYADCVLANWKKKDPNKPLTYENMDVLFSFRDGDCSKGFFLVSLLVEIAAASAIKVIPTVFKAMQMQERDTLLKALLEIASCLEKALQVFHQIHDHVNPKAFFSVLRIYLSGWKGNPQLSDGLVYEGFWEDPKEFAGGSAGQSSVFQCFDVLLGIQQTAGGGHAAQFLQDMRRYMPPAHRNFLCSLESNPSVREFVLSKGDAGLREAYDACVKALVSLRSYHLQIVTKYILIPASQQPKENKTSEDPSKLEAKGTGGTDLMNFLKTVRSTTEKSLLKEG
Method: HEK293 cells were seeded at a density of 30000 cells/well in 100 μl of a culture medium (DMEM supplemented with 10% FBS, penicillin 100 U/ml, and streptomycin 100 μg/ml) in a tissue culture-treated 96 well plate. The cells were cultured in a 5% carbon dioxide incubator for 24 hours, transfected with the IDO1 expression vector (component A in IDO1 cell-based assay kit, catalog #72031, BPS Bioscience) using Lipofectamine 2000 (Life Technologies, #11668027), and then cultured for 24 hours in a 5% carbon dioxide incubator to express the IDO protein.
The activities were measured using a IDO1 cell-based assay kit (catalog #72031, BPS Bioscience). Specifically, an assay medium was prepared by diluting IDO1 assay medium substrate 1 and IDO1 assay medium supplement 2 in a culture medium at a ratio of 1:100, respectively. The test compounds were diluted to the predetermined concentrations in the fresh assay medium. After removing the culture medium using a multi-pipet, 200 μl of each assay medium containing the test material was added into respective well, followed by incubating in a 5% carbon dioxide incubator for 24 hours. The next day, 140 μl of culture medium from each well was transferred to a new 96-well plate. 10 μl of 6.1N trichloroacetic acid was added into each well, which was then cultured in a 50° C. incubator for 30 minutes. The plate was centrifuged at 2500 rpm for 10 minutes to settle any sediment. A detection reagent solution was prepared by diluting the detection reagent (component D in IDO1 cell-based assay kit, catalog #72031 BPS Bioscience) 50-fold in acetic acid. 100 μl of the supernatant taken from the centrifuged plate was transferred to a new transparent 96-well plate and then 100 μl of the detection reagent solution was added thereto. After reacting at room temperature for 10 minutes, absorbance was measured at 480 nm wavelength. For analysis of the results, the absorbance (At) of the well containing HEK293 cells in which IDO protein was expressed without treatment of an inhibitor was 100%; and the absorbance (Ab) of the well containing HEK293 cells in which IDO protein was not expressed was 0. The % absorbance was calculated according to the following equation: % Absorbance=(A−Ab)/(At−Ab), A=absorbance of the well treated with the test compound.

Row | Structure (SMILES) | IC50 [µM]
1 | C[C@H](C[C@H]1CC[C@@H](c2ccnc3ccc(F)cc32)CC1)Nc1nc(Cl)nc2c(Cl)cccc12 [Example 68, 2,8-dichloro-N-((R)-1-((cis)-4-(6-fluoroquinolin-4-yl)cyclohexyl)propan-2-yl)quinazolin-4-amine] | 0.0505
2 | C[C@H](C[C@H]1CC[C@@H](c2ccnc3ccc(F)cc32)CC1)Nc1nc2cc(F)ccc2o1 [Example 36, 5-fluoro-N-((R)-1-((cis)-4-(6-fluoroquinolin-4-yl)cyclohexyl)propan-2-yl)benzo[d]oxazol-2-amine] | 0.0057
3 | C[C@H](C[C@H]1CC[C@@H](c2ccnc3ccc(F)cc32)CC1)Nc1nc(Cl)nc2ccc(F)cc12 [Example 60, 2-chloro-6-fluoro-N-((R)-1-((cis)-4-(6-fluoroquinolin-4-yl)cyclohexyl)propan-2-yl)quinazolin-4-amine] | 0.0611
4 | C[C@H](C[C@H]1CC[C@H](c2ccnc3ccc(F)cc32)CC1)Nc1nc(Cl)nc2c(Cl)cccc12 [Example 51, 2,8-dichloro-N-((R)-1-((trans)-4-(6-fluoroquinolin-4-yl)cyclohexyl)propan-2-yl)quinazolin-4-amine] | 0.124
5 | C[C@H](C[C@H]1CC[C@@H](c2ccnc3ccc(F)cc32)CC1)Nc1nc(Cl)nc2cc(F)ccc12 [Example 62, 2-chloro-7-fluoro-N-((R)-1-((cis)-4-(6-fluoroquinolin-4-yl)cyclohexyl)propan-2-yl)quinazolin-4-amine] | 0.0566
6 | C[C@H](C[C@H]1CC[C@H](c2ccnc3ccc(F)cc32)CC1)Nc1nc(Cl)nc2cc(Br)ccc12 [Example 56, 7-bromo-2-chloro-N-((R)-1-((trans)-4-(6-fluoroquinolin-4-yl)cyclohexyl)propan-2-yl)quinazolin-4-amine] | 0.0193
7 | C[C@H](C[C@H]1CC[C@@H](c2ccnc3ccc(F)cc32)CC1)Nc1nc2ccc(OCCF)cc2o1 [Example 45, 6-(2-fluoroethoxy)-N-((R)-1-((cis)-4-(6-fluoroquinolin-4-yl)cyclohexyl)propan-2-yl)benzo[d]oxazol-2-amine] | 0.0055
8 | C[C@H](C[C@H]1CC[C@@H](c2ccnc3ccc(F)cc32)CC1)Nc1nc(Cl)nc2cc(C#N)ccc12 [Example 63, 2-chloro-4-(((R)-1-((cis)-4-(6-fluoroquinolin-4-yl)cyclohexyl)propan-2-yl)amino)quinazolin-7-carbonitrile] | 0.0275
9 | C[C@H](C[C@H]1CC[C@H](c2ccnc3ccc(F)cc32)CC1)Nc1nc(Cl)nc2cc(C#N)ccc12 [Example 55, 2-chloro-4-(((R)-1-((trans)-4-(6-fluoroquinolin-4-yl)cyclohexyl)propan-2-yl)amino)quinazolin-7-carbonitrile] | 0.0282
10 | C[C@H](C[C@H]1CC[C@H](c2ccnc3ccc(F)cc32)CC1)Nc1nc(Cl)nc2cc(F)ccc12 [Example 54, 2-chloro-7-fluoro-N-((R)-1-((trans)-4-(6-fluoroquinolin-4-yl)cyclohexyl)propan-2-yl)quinazolin-4-amine] | 0.0436
11 | C[C@H](C[C@H]1CC[C@@H](c2ccnc3ccc(F)cc32)CC1)Nc1nc(Cl)nc2cc(Cl)ccc12 [Example 40, 2,7-dichloro-N-((R)-1-((cis)-4-(6-fluoroquinolin-4-yl)cyclohexyl)propan-2-yl)quinazolin-4-amine] | 0.0219
12 | C[C@H](C[C@H]1CC[C@H](c2ccnc3ccc(F)cc32)CC1)Nc1nc(Cl)nc2cc(C(F)(F)F)ccc12 [Example 58, 2-chloro-N-((R)-1-((trans)-4-(6-fluoroquinolin-4-yl)cyclohexyl)propan-2-yl)-7-(trifluoromethyl)quinazolin-4-amine] | 0.0168
13 | C[C@H](C[C@H]1CC[C@H](c2ccnc3ccc(F)cc32)CC1)Nc1nc(Cl)nc2ccc(F)cc12 [Example 48, 2-chloro-6-fluoro-N-((R)-1-((trans)-4-(6-fluoroquinolin-4-yl)cyclohexyl)propan-2-yl)quinazolin-4-amine] | 0.0454
14 | COc1ccc2c(N[C@H](C)C[C@H]3CC[C@H](c4ccnc5ccc(F)cc54)CC3)nc(Cl)nc2c1 [Example 59, 2-chloro-N-((R)-1-((trans)-4-(6-fluoroquinolin-4-yl)cyclohexyl)propan-2-yl)-7-methoxyquinazolin-4-amine] | 0.0194
15 | COc1cccc2c(N[C@H](C)C[C@H]3CC[C@H](c4ccnc5ccc(F)cc54)CC3)nc(Cl)nc12 [Example 52, 2-chloro-N-((R)-1-((trans)-4-(6-fluoroquinolin-4-yl)cyclohexyl)propan-2-yl)-8-methoxyquinazolin-4-amine] | 0.26
16 | C[C@H](C[C@H]1CC[C@@H](c2ccnc3ccc(F)cc32)CC1)Nc1nc2cc(F)c(Cl)cc2o1 [Example 43, 6-chloro-5-fluoro-N-((R)-1-((cis)-4-(6-fluoroquinolin-4-yl)cyclohexyl)propan-2-yl)benzo[d]oxazol-2-amine] | 0.0063
17 | C[C@H](C[C@H]1CC[C@H](c2ccnc3ccc(F)cc32)CC1)Nc1nc(Cl)nc2cc(Cl)ccc12 [Example 41, 2,7-dichloro-N-((R)-1-((trans)-4-(6-fluoroquinolin-4-yl)cyclohexyl)propan-2-yl)quinazolin-4-amine] | 0.0076

The remaining molecules from weak to strong by IC50, led by results:

Row | IC50 [µM] | Structure (SMILES)
18 | 0.406 | C[C@H](C[C@H]1CC[C@@H](c2ccnc3ccc(F)cc32)CC1)Nc1nc(Cl)nc2ccc(Cl)cc12 [Example 61, 2,6-dichloro-N-((R)-1-((cis)-4-(6-fluoroquinolin-4-yl)cyclohexyl)propan-2-yl)quinazolin-4-amine]
19 | 0.114 | COc1cccc2c(N[C@H](C)C[C@H]3CC[C@@H](c4ccnc5ccc(F)cc54)CC3)nc(Cl)nc12 [Example 70, 2-chloro-N-((R)-1-((cis)-4-(6-fluoroquinolin-4-yl)cyclohexyl)propan-2-yl)-8-methoxyquinazolin-4-amine]
20 | 0.072 | C[C@H](C[C@H]1CC[C@H](c2ccnc3ccc(F)cc32)CC1)Nc1nc(Cl)nc2ccc(Cl)cc12 [Example 49, 2,6-dichloro-N-((R)-1-((trans)-4-(6-fluoroquinolin-4-yl)cyclohexyl)propan-2-yl)quinazolin-4-amine]
21 | 0.0574 | C[C@H](C[C@H]1CC[C@H](c2ccnc3ccc(F)cc32)CC1)Nc1nc(Cl)nc2c(OC(F)(F)F)cccc12 [Example 53, 2-chloro-N-((R)-1-((trans)-4-(6-fluoroquinolin-4-yl)cyclohexyl)propan-2-yl)-8-(trifluoromethoxy)quinazolin-4-amine]
22 | 0.0388 | C[C@H](C[C@H]1CC[C@@H](c2ccnc3ccc(F)cc32)CC1)Nc1nc(Cl)nc2cc(Br)ccc12 [Example 64, 7-bromo-2-chloro-N-((R)-1-((cis)-4-(6-fluoroquinolin-4-yl)cyclohexyl)propan-2-yl)quinazolin-4-amine]
23 | 0.0237 | C[C@H](C[C@H]1CC[C@@H](c2ccnc3ccc(F)cc32)CC1)Nc1nc(Cl)nc2ccccc12 [Example 38, 2-chloro-N-((R)-1-((cis)-4-(6-fluoroquinolin-4-yl)cyclohexyl)propan-2-yl)quinazolin-4-amine]
24 | 0.0076 | C[C@H](C[C@H]1CC[C@@H](c2ccnc3ccc(F)cc32)CC1)Nc1nc2cccc(F)c2o1 [Example 37, 7-fluoro-N-((R)-1-((cis)-4-(6-fluoroquinolin-4-yl)cyclohexyl)propan-2-yl)benzo[d]oxazol-2-amine]
25 | 0.0066 | COc1ccc2nc(N[C@H](C)C[C@H]3CC[C@@H](c4ccnc5ccc(F)cc54)CC3)oc2c1F [Example 42, 7-fluoro-N-((R)-1-((cis)-4-(6-fluoroquinolin-4-yl)cyclohexyl)propan-2-yl)-6-methoxybenzo[d]oxazol-2-amine]
26 | 0.0044 | CCOc1ccc2nc(N[C@H](C)C[C@H]3CC[C@@H](c4ccnc5ccc(F)cc54)CC3)oc2c1 [Example 44, 6-ethoxy-N-((R)-1-((cis)-4-(6-fluoroquinolin-4-yl)cyclohexyl)propan-2-yl)benzo[d]oxazol-2-amine]
